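Dose response: 5 concentrations. Exposure: 48 h. Format: 96-well plates. Endpoint: linear interpolation; highest concentration if not reached. Abbreviation: GI50, concentration required for 50% inhibition of growth. TGI is the concentration that stops growth completely.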
Key:
Assay in all cases: inhibition of tumour cell growth, NCI panel, 48 h
786-0 renal = system: 786-0 renal
A498 renal = system: A498 renal
A549 NSCLC = system: A549 NSCLC
ACHN renal = system: ACHN renal
BT-549 breast = system: BT-549 breast
CAKI-1 renal = system: CAKI-1 renal
CCRF-CEM leukemia = system: CCRF-CEM leukemia
COLO 205 colon = system: COLO 205 colon
DU-145 prostate = system: DU-145 prostate
EKVX NSCLC = system: EKVX NSCLC
HCC-2998 colon = system: HCC-2998 colon
HCT-116 colon = system: HCT-116 colon
HCT-15 colon = system: HCT-15 colon
HL-60(TB) leukemia = system: HL-60(TB) leukemia
HOP-62 NSCLC = system: HOP-62 NSCLC
HOP-92 NSCLC = system: HOP-92 NSCLC
HS 578T breast = system: HS 578T breast
HT29 colon = system: HT29 colon
IGROV1 ovarian = system: IGROV1 ovarian
K-562 leukemia = system: K-562 leukemia
KM12 colon = system: KM12 colon
LOX IMVI melanoma = system: LOX IMVI melanoma
M14 melanoma = system: M14 melanoma
MALME-3M melanoma = system: MALME-3M melanoma
MCF7 breast = system: MCF7 breast
MDA-MB-231 breast = system: MDA-MB-231 breast
MDA-MB-435 = system: MDA-MB-435
MOLT-4 leukemia = system: MOLT-4 leukemia
NCI-H226 lung = system: NCI-H226 lung
NCI-H23 lung = system: NCI-H23 lung
NCI-H460 lung = system: NCI-H460 lung
NCI-H522 lung = system: NCI-H522 lung
NCI/ADR-RES ovarian = system: NCI/ADR-RES ovarian
OVCAR-3 ovarian = system: OVCAR-3 ovarian
OVCAR-4 ovarian = system: OVCAR-4 ovarian
OVCAR-5 ovarian = system: OVCAR-5 ovarian
OVCAR-8 ovarian = system: OVCAR-8 ovarian
PC-3 prostate = system: PC-3 prostate
RPMI-8226 leukemia = system: RPMI-8226 leukemia
RXF 393 renal = system: RXF 393 renal
SF-268 CNS = system: SF-268 CNS
SF-295 CNS = system: SF-295 CNS
SF-539 CNS = system: SF-539 CNS
SK-MEL-2 melanoma = system: SK-MEL-2 melanoma
SK-MEL-28 melanoma = system: SK-MEL-28 melanoma
SK-MEL-5 melanoma = system: SK-MEL-5 melanoma
SK-OV-3 ovarian = system: SK-OV-3 ovarian
SN12C renal = system: SN12C renal
SNB-19 CNS = system: SNB-19 CNS
SNB-75 CNS = system: SNB-75 CNS
SR leukemia = system: SR leukemia
SW-620 colon = system: SW-620 colon
T-47D breast = system: T-47D breast
TK-10 renal = system: TK-10 renal
U251 CNS = system: U251 CNS
UACC-257 melanoma = system: UACC-257 melanoma
UACC-62 melanoma = system: UACC-62 melanoma
UO-31 renal = system: UO-31 renal

Question: What does the source list for `O=S(=O)(Nc1ccc(Cl)cc1)c1ccc(-c2cnc(C3CC3)o2)cc1`?
Answer: GI50 (786-0 renal): 1670 nM; TGI (786-0 renal): 20.2 µM; GI50 (A498 renal): 168 nM; TGI (A498 renal): 732 nM; GI50 (A549 NSCLC): 1490 nM; TGI (A549 NSCLC): 22.3 µM; GI50 (ACHN renal): 1250 nM; TGI (ACHN renal): 18.1 µM; GI50 (BT-549 breast): 637 nM; TGI (BT-549 breast): 21.4 µM; GI50 (CAKI-1 renal): 586 nM; TGI (CAKI-1 renal): 16.5 µM; GI50 (CCRF-CEM leukemia): 564 nM; TGI (CCRF-CEM leukemia): 19.9 µM; GI50 (COLO 205 colon): 1270 nM; TGI (COLO 205 colon): 10 µM; GI50 (DU-145 prostate): 2060 nM; TGI (DU-145 prostate): 15.3 µM; GI50 (EKVX NSCLC): 2130 nM; TGI (EKVX NSCLC): 18.8 µM; GI50 (HCC-2998 colon): 2020 nM; TGI (HCC-2998 colon): 15.3 µM; GI50 (HCT-116 colon): 413 nM; TGI (HCT-116 colon): 15.9 µM; GI50 (HCT-15 colon): 368 nM; TGI (HCT-15 colon): 15.1 µM; GI50 (HL-60(TB) leukemia): 388 nM; TGI (HL-60(TB) leukemia): 8.58 µM; GI50 (HOP-62 NSCLC): 791 nM; TGI (HOP-62 NSCLC): 18.6 µM; GI50 (HOP-92 NSCLC): 1810 nM; TGI (HOP-92 NSCLC): 18.1 µM; GI50 (HS 578T breast): 372 nM; TGI (HS 578T breast): 6.86 µM; GI50 (HT29 colon): 414 nM; TGI (HT29 colon): 14.4 µM; GI50 (IGROV1 ovarian): 637 nM; TGI (IGROV1 ovarian): 15.2 µM; GI50 (K-562 leukemia): 353 nM; TGI (K-562 leukemia): > 75 µM; GI50 (KM12 colon): 431 nM; TGI (KM12 colon): 16.2 µM; GI50 (LOX IMVI melanoma): 595 nM; TGI (LOX IMVI melanoma): 18.6 µM; GI50 (M14 melanoma): 406 nM; TGI (M14 melanoma): 16.9 µM; GI50 (MALME-3M melanoma): 743 nM; TGI (MALME-3M melanoma): 20.3 µM; GI50 (MCF7 breast): 383 nM; TGI (MCF7 breast): 15 µM; GI50 (MDA-MB-231 breast): 1670 nM; TGI (MDA-MB-231 breast): 15.1 µM; GI50 (MDA-MB-435): 150 nM; TGI (MDA-MB-435): 511 nM; GI50 (MOLT-4 leukemia): 786 nM; TGI (MOLT-4 leukemia): 41.3 µM; GI50 (NCI-H226 lung): 4.86 µM; TGI (NCI-H226 lung): 23.1 µM; GI50 (NCI-H23 lung): 2280 nM; TGI (NCI-H23 lung): 16.4 µM; GI50 (NCI-H460 lung): 395 nM; TGI (NCI-H460 lung): 7.28 µM; GI50 (NCI-H522 lung): 367 nM; TGI (NCI-H522 lung): 11.1 µM; GI50 (NCI/ADR-RES ovarian): 410 nM; TGI (NCI/ADR-RES ovarian): 8.94 µM; GI50 (OVCAR-3 ovarian): 372 nM; TGI (OVCAR-3 ovarian): 3.73 µM; GI50 (OVCAR-4 ovarian): 2640 nM; TGI (OVCAR-4 ovarian): 17.9 µM; GI50 (OVCAR-5 ovarian): 3.69 µM; TGI (OVCAR-5 ovarian): 17.9 µM; GI50 (OVCAR-8 ovarian): 2540 nM; TGI (OVCAR-8 ovarian): 22.4 µM; GI50 (PC-3 prostate): 1000 nM; TGI (PC-3 prostate): 15.5 µM; GI50 (RPMI-8226 leukemia): 1060 nM; TGI (RPMI-8226 leukemia): 22.7 µM; GI50 (RXF 393 renal): 683 nM; TGI (RXF 393 renal): 4.98 µM; GI50 (SF-268 CNS): 1850 nM; TGI (SF-268 CNS): 23 µM; GI50 (SF-295 CNS): 425 nM; TGI (SF-295 CNS): 12.5 µM; GI50 (SF-539 CNS): 513 nM; TGI (SF-539 CNS): 3.43 µM; GI50 (SK-MEL-2 melanoma): 766 nM; TGI (SK-MEL-2 melanoma): 21.2 µM; GI50 (SK-MEL-28 melanoma): 5.72 µM; TGI (SK-MEL-28 melanoma): 21.9 µM; GI50 (SK-MEL-5 melanoma): 768 nM; TGI (SK-MEL-5 melanoma): 12.8 µM; GI50 (SK-OV-3 ovarian): 2070 nM; TGI (SK-OV-3 ovarian): 15.6 µM; GI50 (SN12C renal): 1090 nM; TGI (SN12C renal): 19.5 µM; GI50 (SNB-19 CNS): 847 nM; TGI (SNB-19 CNS): 18.2 µM; GI50 (SNB-75 CNS): 191 nM; TGI (SNB-75 CNS): 1540 nM; GI50 (SR leukemia): 210 nM; TGI (SR leukemia): 28.5 µM; GI50 (SW-620 colon): 378 nM; TGI (SW-620 colon): 14 µM; GI50 (T-47D breast): 860 nM; TGI (T-47D breast): 17.4 µM; GI50 (TK-10 renal): 6.49 µM; TGI (TK-10 renal): 21.9 µM; GI50 (U251 CNS): 659 nM; TGI (U251 CNS): 17.6 µM; GI50 (UACC-257 melanoma): 8.36 µM; TGI (UACC-257 melanoma): 28.8 µM; GI50 (UACC-62 melanoma): 584 nM; TGI (UACC-62 melanoma): 13.7 µM; GI50 (UO-31 renal): 1140 nM; TGI (UO-31 renal): 15.5 µM
